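In this assay, cells in 96-well plates receive the compound at five concentrations for 48 hours. Endpoints are linearly interpolated between the surrounding concentrations. GI50: concentration for 50% inhibition of growth. Definition used: TGI = concentration required for complete inhibition of growth.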

Some test systems named below: SNB-19 CNS; MOLT-4 leukemia; HOP-62 NSCLC; A549 NSCLC; SF-268 CNS; NCI-H522 lung; U251 CNS; MCF7 breast; SF-295 CNS; UACC-257 melanoma.
Common to all, as to test: NCI tumour cell line growth inhibition, 48 h

Turning to `COc1cccc(N2CCN(CC(=O)N3CCN(c4nnc(-c5ccc(Cl)cc5)c(-c5ccc(Cl)cc5)n4)CC3)CC2)c1`, the GI50 was 37.9 µM with SNB-19 CNS; 3.1 µM in the experiment with MOLT-4 leukemia; 32.1 µM in the experiment on HOP-62 NSCLC; 38.1 µM in the experiment with A549 NSCLC; over 100 µM with SF-268 CNS; 19.8 µM in the experiment on NCI-H522 lung. Further, the GI50 was 16.7 µM with U251 CNS, 5.14 µM in the experiment on MCF7 breast, 28.9 µM in the experiment on SF-295 CNS and 51.7 µM in the experiment on UACC-257 melanoma. Moreover, the TGI with SNB-19 CNS, in the experiment on MOLT-4 leukemia, with HOP-62 NSCLC, with A549 NSCLC, with SF-268 CNS and in the experiment on NCI-H522 lung was over 100 µM in each case. The TGI is over 100 µM with U251 CNS, 61.3 µM in the experiment on MCF7 breast, over 100 µM in the experiment with SF-295 CNS and over 100 µM with UACC-257 melanoma.
`CSC(=Nc1nnc(-c2ccc([N+](=O)[O-])cc2)s1)SC`: the TGI in the experiment with SNB-19 CNS is 63.2 µM; with MOLT-4 leukemia it was over 100 µM; with HOP-62 NSCLC, 53.3 µM; in the experiment with A549 NSCLC, over 100 µM; in the experiment on SF-268 CNS, 68 µM; in the experiment with NCI-H522 lung it was 99.2 µM. For the same compound, the TGI with U251 CNS is 58.1 µM; in the experiment with MCF7 breast, over 100 µM; in the experiment on SF-295 CNS it was 50 µM; in the experiment on UACC-257 melanoma it was over 100 µM.
For `CCOC(=O)Nc1ccc2c(c1)/C(=N\NC(N)=S)c1ccccc1-2`, the GI50 in the experiment on SNB-19 CNS is 9.92 µM; in the experiment on MOLT-4 leukemia it was 2.83 µM; with HOP-62 NSCLC, 4.9 µM; in the experiment on A549 NSCLC, 3.79 µM; in the experiment with SF-268 CNS it was 6.14 µM; in the experiment with NCI-H522 lung, 3.84 µM. In addition, the GI50 is 4.54 µM in the experiment with U251 CNS, 3.15 µM in the experiment with MCF7 breast, 2.37 µM in the experiment on SF-295 CNS and 3.55 µM in the experiment with UACC-257 melanoma. The TGI is over 100 µM with SNB-19 CNS; 13.2 µM with MOLT-4 leukemia; 22.6 µM with HOP-62 NSCLC; 19.7 µM in the experiment with A549 NSCLC; 39.9 µM in the experiment with SF-268 CNS; 12.7 µM in the experiment with NCI-H522 lung. Further, the TGI with U251 CNS came out at 40.9 µM; in the experiment with MCF7 breast, 23.8 µM; in the experiment with SF-295 CNS, 7.59 µM; in the experiment with UACC-257 melanoma, 12.7 µM.
As for `COc1ccc(-c2cc3c(c4cc(OC)ccc24)C(=O)OC3=O)cc1`, the TGI in the experiment on SNB-19 CNS, with MOLT-4 leukemia, in the experiment with HOP-62 NSCLC, with A549 NSCLC, with SF-268 CNS and with NCI-H522 lung was over 100 µM throughout. The TGI in the experiment on U251 CNS, in the experiment with MCF7 breast, in the experiment with SF-295 CNS and in the experiment with UACC-257 melanoma was over 100 µM each time.
Turning to `CCN1C(=O)N(CC)C2C1NN=c1s/c(=C\c3cccc(F)c3)c(=O)n12` (centres undefined), the GI50 with SNB-19 CNS was 0.263 µM; in the experiment on MOLT-4 leukemia it was 0.327 µM; with HOP-62 NSCLC, 0.598 µM; in the experiment with A549 NSCLC it was 0.282 µM; in the experiment with SF-268 CNS, 2.61 µM; in the experiment on NCI-H522 lung, 0.228 µM. Further, the GI50 was 0.21 µM in the experiment with U251 CNS, 0.0392 µM with MCF7 breast, 0.224 µM in the experiment with SF-295 CNS and 30 µM in the experiment on UACC-257 melanoma. In addition, the TGI with SNB-19 CNS was over 100 µM; in the experiment with MOLT-4 leukemia, over 100 µM; in the experiment on HOP-62 NSCLC it was over 100 µM; with A549 NSCLC it was over 100 µM; in the experiment on SF-268 CNS, over 100 µM; with NCI-H522 lung it was 33.2 µM. Besides, the TGI with U251 CNS, with MCF7 breast, in the experiment with SF-295 CNS and in the experiment on UACC-257 melanoma was over 100 µM each time.
As for `Clc1nc(Cl)c2ncn(CC3(Cn4cnc5c(Cl)nc(Cl)nc54)COC3)c2n1`, the GI50 in the experiment with SNB-19 CNS was 0.332 µM; in the experiment with MOLT-4 leukemia it was 0.462 µM; in the experiment with HOP-62 NSCLC, 0.221 µM; in the experiment with A549 NSCLC, 0.273 µM; in the experiment on SF-268 CNS, 0.196 µM; with NCI-H522 lung, 0.966 µM. The GI50 in the experiment with U251 CNS is 0.181 µM; in the experiment with MCF7 breast, 0.188 µM; in the experiment with SF-295 CNS, 1.56 µM; in the experiment on UACC-257 melanoma, 0.197 µM. Also, the TGI turned out to be 0.803 µM in the experiment on SNB-19 CNS; 0.426 µM in the experiment on HOP-62 NSCLC; 1.19 µM in the experiment with A549 NSCLC; 0.372 µM with SF-268 CNS; 3.07 µM in the experiment with NCI-H522 lung; 0.331 µM in the experiment with U251 CNS. Besides, the TGI came to 0.428 µM in the experiment with MCF7 breast, 3.1 µM in the experiment with SF-295 CNS and 0.427 µM in the experiment with UACC-257 melanoma.
Turning to `O=C1C(Cl)=C(Nc2cccc(Cl)c2)C(=O)N1Cc1ccc(Cl)cc1`, the GI50 with SNB-19 CNS was 4.06 µM; with MOLT-4 leukemia it was 0.513 µM; in the experiment with HOP-62 NSCLC it was 1.53 µM; with A549 NSCLC, 3.71 µM; in the experiment on SF-268 CNS it was 1.41 µM; in the experiment with NCI-H522 lung, 0.916 µM. The GI50 is 0.312 µM in the experiment on U251 CNS, 0.499 µM in the experiment on MCF7 breast, 0.532 µM in the experiment on SF-295 CNS and 6.39 µM in the experiment on UACC-257 melanoma. The TGI in the experiment on SNB-19 CNS was 33 µM; in the experiment on MOLT-4 leukemia it was over 100 µM; in the experiment with HOP-62 NSCLC, 13.9 µM; in the experiment with A549 NSCLC, 21 µM; in the experiment with SF-268 CNS, 19.3 µM; in the experiment on NCI-H522 lung, 8.21 µM. In addition, the TGI in the experiment on U251 CNS was found to be 14.2 µM; in the experiment with MCF7 breast it was 13.6 µM; with SF-295 CNS it was 15.6 µM; in the experiment with UACC-257 melanoma it was 28.2 µM.
`COc1ncnc2c(-c3ccccc3)cn(COCc3ccccc3)c12`: the GI50 with SNB-19 CNS was 6.53 µM; with MOLT-4 leukemia it was 2.7 µM; in the experiment on HOP-62 NSCLC, 5.78 µM; with A549 NSCLC it was 3.3 µM; with SF-268 CNS, 4.25 µM; in the experiment on NCI-H522 lung, 2.09 µM. For the same compound, the GI50 in the experiment on U251 CNS is 4.06 µM; in the experiment on MCF7 breast, 2.53 µM; in the experiment with SF-295 CNS, 2.82 µM; with UACC-257 melanoma, 2.74 µM. The TGI is over 100 µM with SNB-19 CNS; 7.12 µM with MOLT-4 leukemia; 87.6 µM in the experiment with HOP-62 NSCLC; 28.7 µM with A549 NSCLC; over 100 µM in the experiment with SF-268 CNS; 6.17 µM with NCI-H522 lung. Moreover, the TGI with U251 CNS is over 100 µM; in the experiment on MCF7 breast, 9.32 µM; in the experiment with SF-295 CNS, 15.4 µM; in the experiment on UACC-257 melanoma, 9.31 µM.

For the origin of these results see PubChem BioAssay (NCI).
